Assay results taken from patent US20140271667A1, “Methods and Compositions for Neoadjuvant Therapy” (The Wistar Institute of Anatomy and Biology, priority 2013, published 2014).

What was measured:
PC3 cells [1] = assay: Matrigel-coated transwell cell invasion; format: cell-based, human; details: Gamitrinib 5 μM, 17-AAG 5 μM, CCCP 12.5 μM, 2-DG 25 mM, 16 h
Procedure: (§1) Various tumor cell types were treated as indicated in each experiment, suspended in 0.1% BSA/DMEM and seeded (1.6−3.2×10^3 cells/mm2, depending on the cell type) in the upper compartment of […] pore diameter BD transwells (BD). NIH3T3 conditioned medium was placed in the lower compartment as a chemoattractant. After 6-18 h incubations at 37° C., the transwell membranes were recovered and cells on the upper side (non-migratory) were wiped off the surface. Cells on the lower side of the membrane were fixed in methanol, rinsed in water and mounted on glass slides with Vectashield medium containing DAPI (Vector Laboratories). Migrated cells on each membrane were counted by fluorescence microscopy in 5 different fields. For cell invasion assays, transwell membranes were coated with Matrigel and processed as described above.

[2] = system: p21-activated kinases, Pak-1,2; assay: Western blotting, Pak phosphorylation; format: cell-based, human; details: Gamitrinib 5 μM
Procedure: (§2) Protein lysates were prepared in RIPA buffer containing 150 mM NaCl, 1.0% Triton X-100, 0.5% sodium deoxycholate, 0.1% SDS, 50 mM Tris, pH 8.0, in the presence of EDTA-free protease inhibitor cocktail (Roche) and phosphatase inhibitor cocktail 2 and 3 (Sigma Aldrich). Equal amounts of protein lysates were separated by SDS gel electrophoresis, transferred to PVDF membranes and incubated with primary antibodies of various specificities. Protein bands were detected by chemiluminescence, as described (21).

LN229 cells [3] = assay: ATP measurement (luciferin-luciferase); format: cell-based, human; details: Gamitrinib 5-10 μM, concentration-dependent
Procedure: Intracellular ATP concentrations were measured by the luciferin-luciferase method using an ATP measuring kit (Biochain). The ATP concentration in each extract was determined in a microplate luminometer (Beckman Coulter) against standard ATP solutions used as reference.

PC3 cells [4] = assay: Cell death by Trypan blue exclusion; format: cell-based; details: vs vehicle, Gamitrinib 5 μM, CCCP 12.5 μM, 2-DG 25 mM
Procedure: (§3) Tumor cells were plated onto 96-well plates at 3.7×10^3/well and treated with vehicle or Gamitrinib (5 μM). After 24 h, cell viability was assessed with a 3 (4,5-dimethyl-thyazoyl-2-yl)2,5 diphenyltetrazolium bromide (MTT) colorimetric assay (24), or, alternatively, by Trypan blue exclusion and light microscopy. Data were background-subtracted relative to vehicle-treated cultures. In some experiments, tumor cell proliferation was assessed by direct cell counting and light microscopy.

Raptor = assay: Western blotting, Raptor phosphorylation; format: cell-based, human; details: PC3; Gamitrinib 5 μM, metformin 5 mM 6 h, 17-AAG 5 μM
Procedure: as §2

PC3 cells [5] = assay: Transwell cell migration; format: cell-based, human; details: Gamitrinib 5 μM, 17-AAG 5 μM, CCCP 12.5 μM, 2-DG 25 mM, rapamycin 0.1 μM, 6 h
Procedure: as §1

AMPK = assay: Western blotting, AMPK and ACC phosphorylation; format: cell-based, human
Procedure: as §2

bone metastatic disease = details: orthotopic xenograft models and genetic mouse models; cited from earlier work
LN229 spheroids [6] = assay: Tumor cell invasion in 3D organotypic spheroids embedded in collagen; format: cell-based, human; details: LN229 spheroids in collagen matrix; Gamitrinib 1.25-2.5 μM; 72 h
Procedure: (§4) For cell migration experiments using a wound closure assay, confluent monolayers of MRC-5 cells were incubated with vehicle or Gamitrinib (5-10 μM), and wounded using a 10 μl pipette tip. Three micrographs/well were obtained at time=0, 16 and 24 h after wounding, and the percentage of wound closure was normalized to the maximum initial area for each well. For analysis of tumor cell invasion in 3D organotypic spheroids, tumor cells (5×10^4) were seeded onto 96-well plates coated with 1.5% agar (Difco Noble Agar) in PBS, pH 7.4. Spheroids were allowed to form over a 72 h period and then embedded in […] of bovine collagen type I (Organogenesis) in 24-well plates. Spheroids were overlaid with 1 ml of growth medium, treated with various concentrations of Gamitrinib for 72 h, and analyzed for changes in maximum invasion distance and invasion area. Quantification of live vs. dead cells under the various conditions tested was performed by staining the spheroids with calcein-AM (live, bright cluster) and Topro-3 (dead, dark spots) (Invitrogen) for 2 h. Samples were imaged using a Prairie Ultima II 2-photon microscope (Prairie Technologies, Inc, Middleton, Wis.), and stacks of 100 slices were generated in 2 channels. 3-D reconstruction of the labeled spheroids and analysis of cell staining was carried out using ImagePro Plus 3D software (Media Cybernetics, Silver Spring Md.).

ULK1 = assay: Western blotting, ULK1 phosphorylation and level; format: cell-based, human; details: PC3
Procedure: as §2

PC3 cells [7] = assay: Wound closure assay, tumor cells; format: cell-based, human; details: Gamitrinib 5 μM, 16 and 24 h
tumor cells = details: previous data (23); cited from earlier work
LN229 spheroids [8] = assay: Spheroid live/dead staining (calcein-AM/Topro-3), 2-photon microscopy; format: cell-based, human
Procedure: as §4

LN229 cells [9] = assay: Galactose challenge cell viability; format: cell-based, human; details: Gamitrinib 5 μM
Procedure: Human glioblastoma LN229, prostate adenocarcinoma PC3 and PC3-ML subline, lung adenocarcinoma H1299, H1437, H460 and A549, breast adenocarcinoma MDA-MB-231, melanoma 1205Lu and WM793, or normal NIH3T3 and MRC-5 fibroblasts were obtained from the American Tissue Culture Collection (ATCC), and maintained in culture according to the supplier's specifications. For metabolic stress experiments, cells were incubated in MEM-based media containing glucose, essential and non-essential amino acids and vitamins in identical concentration as DMEM, plus 4 mM L-glutamine, 1 mM sodium pyruvate, 10 mM HEPES, and 10% 10 K dialyzed FBS (Gibco). Three conditions were tested: 25 mM glucose (complete medium), 5 mM glucose or 50% amino acid deprivation compared to DMEM. […]
as §3, with “Data were background-subtracted relative to vehicle-treated cultures.” left out

Gamitrinib
tumor cell invasion (PC3 cells [1]): suppressed
Pak-1,2 phosphorylation on Ser199, Ser144 and Ser20 [2]: inhibited the phosphorylation
ATP production in tumor cells (LN229 cells [3]): inhibited ATP production
cell death by Trypan blue exclusion (PC3 cells [4]): did not affect
Raptor phosphorylation on Ser792 (Raptor): induced strong phosphorylation
tumor cell migration (PC3 cells [5]): suppressed
AMPK phosphorylation during nutrient deprivation (AMPK; LN229, Gamitrinib 5 μM, with or without glucose): increased AMPK phosphorylation
AMPK and ACC phosphorylation (AMPK; PC3, Gamitrinib 5 μM time course, metformin 5 mM 6 h, 17-AAG 5 μM time course): induced early phosphorylation
bone metastatic disease (bone metastatic disease): inhibit bone metastatic disease
invasive length and invasive areas (LN229 spheroids [6]): nearly complete suppression
tumor cell invasion in organotypic spheroids (LN229 spheroids [6]): blocked tumor cell invasion
ULK1 phosphorylation on Ser555 (ULK1; Gamitrinib 5 μM (within 1-2 h), metformin 5 mM 6 h, 17-AAG 5 μM): phosphorylation of ULK1 on Ser555
ULK1 phosphorylation on Ser757 (ULK1; Gamitrinib 5 μM, metformin 5 mM 6 h, 17-AAG 5 μM): decreased phosphorylation on Ser757
total level of ULK1 (ULK1; time points of the Western blot experiment): not affected
tumor cell migration in wound closure assay (PC3 cells [7]): inhibited tumor cell migration
O2 consumption in tumor cells (tumor cells): inhibited O2 consumption
overall cell viability in a 3-D microenvironment (LN229 spheroids [8]): not affected
tumor cell viability in 100% galactose (LN229 cells [9]; 0% Glc-100% Gal): nearly complete tumor cell death
tumor cell viability in glucose or 50% galactose (LN229 cells [9]; 100% glucose or 50% Glc-50% Gal): did not significantly reduce tumor cell viability
